# Data taken from paper PMC5577134 (Nature Communications, 2017).
# Where two headings read alike, the source gives them in different places. Marks after values point to notes of the source that are not given here. *1 amine or outer side, *2 acyl side, *3 side chain or, on linkers, in order; H or OH if unused. Where a SMILES comes first, the peptide text is derived from it. [ ]: non-standard residue; d: D form. ξ: configuration not given here. Trp(1-(1,1-Me2-allyl)) = C=CC(C)(C)n1cc(C[C@H](N)C(=O)O)c2ccccc21; NMeGlu(4S-Me) = C[C@@H](C[C@@H](C(=O)[*:2])N(C)[*:1])C(=O)[*:3]; Tyr(3-NO2) = N[CH](Cc1ccc(O)c([N+](=O)[O-])c1)C(=O)O; X1 = CC(C)(C1CO1)n1cc(CC(N[*:1])C(=O)[*:2])c2ccccc21; X2 = CC(CC(C(=O)[*:2])N(C)[*:1])C(=O)O; Gly(E-crotyl) = C/C=C/C[C@H](N)C(=O)O; ξNle(4,5-dehydro) = CC=CCC(N)C(=O)O; NMeL = CN[CH](CC(C)C)C(=O)O
# Tests used:
# M. tuberculosis H37Rv = assay: Anti-TB broth dilution MIC; format: cell-based, Mycobacterium tuberculosis
# Micrococcus luteus SC-1 = assay: Antibacterial broth dilution MIC; format: cell-based
# Description: (§1) To determine the antibacterial activities of these eight compounds (1–8), a preliminary screening of their antibacterial activities against a panel of Gram-positive and Gram-negative bacteria[6]–[8], M. smegmatis MC^2 155 and M. tuberculosis H37Rv, was conducted using a broth dilution method, [59]. Compounds 1–8 were dissolved in dimethylsulfoxide (DMSO) to give 3200 μg mL^−1 stock solutions. The stock solutions were then serially diluted to concentrations of 0.0625–128 μg mL^−1 with MH broth or 7H9 broth (added with 0.2% glycerol, 0.05% Tween 80). DMSO in MH broth or 7H9 broth was used as a negative control, and broth-containing bacteria was used as positive control. All experiments were performed in triplicate with kanamycin and rifampicin as control agents.
# [1] = test system: Escherichia coli ATCC 25922; assay: Antibacterial broth dilution MIC; format: cell-based
# Description: as §1
# [2] = test system: Acinetobacter baumanii ATCC19606; assay: Antibacterial broth dilution MIC; format: cell-based
# Description: as §1
# [3] = test system: Staphylococcus aureus ATCC29213; assay: Antibacterial broth dilution MIC; format: cell-based
# Description: as §1
# M. smegmatis MC^2 155 = assay: Antimycobacterial broth dilution MIC; format: cell-based, Mycobacterium smegmatis
# Description: as §1
# MRSA shha-01 = assay: microbe, parasite or virus in culture; format: cell-based; conditions: Staphylococcus aureus
# [4] = test system: Enterococcus faecalis ATCC29212; assay: Antibacterial broth dilution MIC; format: cell-based
# Description: as §1
# [5] = test system: human tumor cell lines and normal human cell lines; assay: MTT cytotoxicity, summary over human tumor and normal cell lines; format: cell-based; conditions: HeLa, HepG2, and A549 cell lines, read-out: IC50 values, range over cell lines
# Description: (§2) Compounds 1–8 were evaluated for cytotoxicity using HeLa, HepG2, A549, CNE2, and MCF7 cell lines using a previously reported MTT method. The L02 and Huvec-12 cell lines were used as normal cell line controls. All these cell lines were obtained from American Type Culture Collection (ATCC) and cultured according to ATCC recommendations. Cell lines were checked for mycoplasma and profiled via short tandem repeat profiling to confirm their identity by the supplier. All experiments were performed in triplicate with doxorubicin and cis-platinum as control agents.
# [6] = test system: Huvec-12, normal human umbilical vein endothelial cell line; assay: MTT cytotoxicity, normal cell line control; format: cell-based; conditions: Huvec-12 normal cell line
# Description: as §2
# [7] = test system: L02, normal human hepatic cell line; assay: MTT cytotoxicity, normal cell line control; format: cell-based
# Description: as §2
# [8] = test system: CNE2, human nasopharyngeal carcinoma cell line; assay: MTT cytotoxicity; format: cell-based
# Description: as §2
# [9] = test system: A549, human lung cancer cell line; assay: MTT cytotoxicity; format: cell-based
# Description: as §2
# [10] = test system: MCF7, human breast adenocarcinoma cell line; assay: MTT cytotoxicity; format: cell-based
# Description: as §2
# [11] = test system: HeLa, human cervical carcinoma cell line; assay: MTT cytotoxicity; format: cell-based
# Description: as §2
# [12] = test system: HepG2, human hepatocellular carcinoma cell line; assay: MTT cytotoxicity; format: cell-based
# Description: as §2
# [13] = Acinetobacter baumannii, ATCC19606
# [14] = Mycolicibacterium smegmatis, MC^2155, read-out: MIC
# [15] = Mycobacterium tuberculosis, H37RV, broth dilution, triplicate, n = 3
SMILES,MIC [3] [µM],MIC (MRSA shha-01) [µM],MIC (Micrococcus luteus SC-1; SC1) [µM],MIC ([1]; ATCC25922) [µM],"MIC [2, 13] [µM]",MIC [4] [µM],"IC50 ([6]; Homo sapiens, Endothelial cell) [µM]",IC50 ([7]; Homo sapiens) [µM],"IC50 ([8]; Homo sapiens, CNE-2) [µM]",IC50 ([9]; Homo sapiens) [µM],IC50 ([10]; Homo sapiens) [µM],IC50 ([11]; Homo sapiens) [µM],IC50 ([12]; Homo sapiens) [µM],MIC (M. smegmatis MC^2 155; [14]) [µM],MIC (M. tuberculosis H37Rv; [15]) [µM],further results
"CO[C@H]1/C=C/O[C@@]2(C)Oc3c(C)c(O)c4c(O)c(c(/C=N/N5CCN(C)CC5)c(O)c4c3C2=O)NC(=O)/C(C)=C\C=C\[C@H](C)[C@H](O)[C@@H](C)[C@@H](O)[C@@H](C)[C@H](OC(C)=O)[C@@H]1C [Rif, Rifampin, reference compound]",–,–,–,–,–,–,–,–,–,–,–,–,–,–,–,"MIC (M. tuberculosis H37Rv; Mycobacterium tuberculosis, H37RV, broth dilution, triplicate, n = 3, read-out: MIC): 0.3 µM"
"NC[C@H]1O[C@H](O[C@H]2[C@H](O)[C@@H](O[C@H]3O[C@H](CO)[C@@H](O)[C@H](N)[C@H]3O)[C@H](N)C[C@@H]2N)[C@H](O)[C@@H](O)[C@@H]1O [Kanamycin, reference compound]",0.85,–,–,–,–,–,–,–,–,–,–,–,–,–,–,MIC (Micrococcus luteus SC-1): 0.85 µM; MIC [1]: 1.7 µM; MIC ([2]; Acinetobacter baumanii ATCC19606): 3.4 µM; MIC (M. smegmatis MC^2 155): 1.7^a μM
C=CC(C)(C)n1cc(C[C@@H]2NC(=O)[C@H](C/C=C/C)NC(=O)[C@H](CC(C)C)N3C(=O)[C@H](C[C@H](C)C3O)N(C)C(=O)[C@H](C)NC(=O)[C@H](Cc3ccc(O)c([N+](=O)[O-])c3)NC(=O)[C@H](CC(C)C)N(C)C2=O)c2ccccc21 (stereo partly shown) [6/7],> 125,> 125,> 125,> 125,125,> 125,18.6,14.9,14.9,6.2,3.9,3.9,4.9,30.7,0.0098,"IC50 [5]: 3.2 to 6.2 µM; fold superior to positive control rifampin (MIC) (M. tuberculosis H37Rv): 30 fold; MIC (M. tuberculosis H37Rv; Mycobacterium tuberculosis, H37RV): ~0.0098 µM; MIC (M. tuberculosis H37Rv; read-out: MIC): 0.0098 µM"
"C=CC(C)(C)n1cc(C[C@@H]2NC(=O)[C@H](C/C=C/C)NC(=O)[C@H](CC(C)C)NC(=O)[C@H](CC(C)C)N(C)C(=O)[C@H](C)NC(=O)[C@H](Cc3ccc(O)c([N+](=O)[O-])c3)NC(=O)[C@H](CC(C)C)N(C)C2=O)c2ccccc21 [compound 1, ilamycin B1] (cyclo(A[NMeL]L[Gly(E-crotyl)][Trp(1-(1,1-Me2-allyl))][NMeL][Tyr(3-NO2)]))",> 126,> 126,> 126,> 126,126,> 126,> 50,> 50,> 50,> 50,> 50,> 50,> 50,> 126,98.9,–
"C=CC(C)(C)n1cc(C[C@@H]2NC(=O)[C@H](C/C=C/C)NC(=O)[C@H](CC(C)C)NC(=O)[C@H](C[C@H](C)C(=O)O)N(C)C(=O)[C@H](C)NC(=O)[C@H](Cc3ccc(O)c([N+](=O)[O-])c3)NC(=O)[C@H](CC(C)C)N(C)C2=O)c2ccccc21 [compound 8, ilamycin F] (cyclo(A[NMeGlu(4S-Me)]L[Gly(E-crotyl)][Trp(1-(1,1-Me2-allyl))][NMeL][Tyr(3-NO2)]))",> 123,> 123,> 123,> 123,123,> 123,> 50,> 50,> 50,> 50,> 50,> 50,> 50,30.7,1.2,–
CC=CCC1NC(=O)C(CC(C)C)N2C(=O)C(CC(C)C2O)N(C)C(=O)C(C)NC(=O)C(Cc2ccc(O)c([N+](=O)[O-])c2)NC(=O)C(CC(C)C)N(C)C(=O)C(Cc2cn(C(C)(C)C3CO3)c3ccccc23)NC1=O (stereo not shown) [3/4],> 123,> 123,> 123,> 123,123,> 123,33.8,7.4,6.8,3.5,4.5,3.3,3.2,0.12,9.6,IC50 [5]: 3.2 to 6.2 µM
"COc1cccc2c1C(=O)c1c(O)c3c(c(O)c1C2=O)C[C@@](O)(C(=O)CO)C[C@@H]3O[C@H]1C[C@H](N)[C@H](O)[C@H](C)O1 [Dox, Doxorubicin, reference compound]",–,–,–,–,–,–,34.3,13,3.6,3.4,3.4,0.98,1.2,–,–,–
"CC=CCC1NC(=O)C(CC(C)C)NC(=O)C(CC(C)C)N(C)C(=O)C(C)NC(=O)C(Cc2ccc(O)c([N+](=O)[O-])c2)NC(=O)C(CC(C)C)N(C)C(=O)C(Cc2cn(C(C)(C)C3CO3)c3ccccc23)NC1=O (stereo not shown) [compound 2, ilamycin B2] (cyclo([ξNle(4,5-dehydro)][X1][NMeL][Tyr(3-NO2)]A[NMeL]L); configuration not given here)",> 124,> 124,> 124,> 124,124,> 124,18.6,24.6,24.5,13.8,17.4,7.1,8.9,> 124,2.4,–
"CC=CCC1NC(=O)C(CC(C)C)NC(=O)C(CC(C)C(=O)O)N(C)C(=O)C(C)NC(=O)C(Cc2ccc(O)c([N+](=O)[O-])c2)NC(=O)C(CC(C)C)N(C)C(=O)C(Cc2cn(C(C)(C)C3CO3)c3ccccc23)NC1=O (stereo not shown) [compound 5, ilamycin D] (cyclo([X2]L[ξNle(4,5-dehydro)][X1][NMeL][Tyr(3-NO2)]A); configuration not given here)",> 121,> 121,> 121,> 121,121,> 121,> 50,> 50,> 50,> 50,> 50,> 50,> 50,30.3,1.2,–
"N.N.[Cl][Pt][Cl] [Cis, Cisplatin, reference compound]",–,–,–,–,–,–,–,–,–,–,–,–,–,–,–,IC50 [6]: 34.5 µM; IC50 [7]: 22.7 µM; IC50 [8]: 12.9 µM; IC50 [9]: 9.3 µM; IC50 [10]: 14.1 µM; IC50 [11]: 5.2 µM; IC50 [12]: 2.5 µM
